Experiment: xn = mol fraction of the nth substance listed
Settings: 97.6 kPa, Liquid; for viscosity: Capillary tube (Ostwald / Ubbelohde) method; for mass density: Vibrating tube method

CCCCCCCC[n+]1ccn(C)c1.[Cl-] [1-methyl-3-octylimidazolium chloride] + c1ccncc1
Settings	mass density [kg/m3]	viscosity [mPa·s]
303.15 K, x1 = 0.128	988.9	3.46
303.15 K, x1 = 0.255	998.25	12.71
303.15 K, x1 = 0.339	1000.33	29.41
303.15 K, x1 = 0.445	1002.78	84.05
303.15 K, x1 = 0.578	1004.43	290.77
303.15 K, x1 = 0.755	1005.83	863.91
303.15 K, x1 = 0.865	1005.51	2828.1
303.15 K, x1 = 1	1006.2	7339.7
308.15 K, x1 = 0.128	984.71	3.11
308.15 K, x1 = 0.255	994.55	10.87
308.15 K, x1 = 0.339	996.84	24.13
308.15 K, x1 = 0.445	999.45	65.58
308.15 K, x1 = 0.578	1001.29	215.57
308.15 K, x1 = 0.755	1002.79	599.38
308.15 K, x1 = 0.865	1002.58	1823.5
308.15 K, x1 = 1	1003.33	4272.9
313.15 K, x1 = 0.128	980.51	2.81
313.15 K, x1 = 0.255	990.84	9.39
313.15 K, x1 = 0.339	993.34	20.12
313.15 K, x1 = 0.445	996.14	51.96
313.15 K, x1 = 0.578	998.15	161.31
313.15 K, x1 = 0.755	999.79	426
313.15 K, x1 = 0.865	999.66	1210.7
313.15 K, x1 = 1	1000.48	2766.9
318.15 K, x1 = 0.128	976.31	2.56
318.15 K, x1 = 0.255	987.14	8.17
318.15 K, x1 = 0.339	989.85	16.97
318.15 K, x1 = 0.445	992.85	42.02
318.15 K, x1 = 0.578	995.01	123.18
318.15 K, x1 = 0.755	996.82	309.61
318.15 K, x1 = 0.865	996.75	829.67
318.15 K, x1 = 1	997.64	1788.6
323.15 K, x1 = 0.128	972.1	2.34
323.15 K, x1 = 0.255	983.45	7.17
323.15 K, x1 = 0.339	986.38	14.49
323.15 K, x1 = 0.445	989.57	34.4
323.15 K, x1 = 0.578	991.88	96.06
323.15 K, x1 = 0.755	993.86	230.68
323.15 K, x1 = 0.865	993.8	583.82
323.15 K, x1 = 1	994.82	1198.7
328.15 K, x1 = 0.128	967.86	2.15
328.15 K, x1 = 0.255	979.75	6.34
328.15 K, x1 = 0.339	982.9	12.56
328.15 K, x1 = 0.445	986.28	28.53
328.15 K, x1 = 0.578	988.75	75.98
328.15 K, x1 = 0.755	990.9	174.4
328.15 K, x1 = 0.865	990.92	419.77
328.15 K, x1 = 1	992	828.3
333.15 K, x1 = 0.128	963.58	1.98
333.15 K, x1 = 0.255	976.06	5.65
333.15 K, x1 = 0.339	979.42	10.81
333.15 K, x1 = 0.445	983	23.98
333.15 K, x1 = 0.578	985.64	61.06
333.15 K, x1 = 0.755	987.95	134.84
333.15 K, x1 = 0.865	988.06	309.69
333.15 K, x1 = 1	989.17	588.69
338.15 K, x1 = 0.128	959.29	1.83
338.15 K, x1 = 0.255	972.37	5.06
338.15 K, x1 = 0.339	975.93	9.51
338.15 K, x1 = 0.445	979.67	20.37
338.15 K, x1 = 0.578	982.53	49.81
338.15 K, x1 = 0.755	984.99	–
338.15 K, x1 = 0.865	985.22	233.02
338.15 K, x1 = 1	986.38	426.28
343.15 K, x1 = 0.128	955.03	1.7
343.15 K, x1 = 0.255	968.68	4.56
343.15 K, x1 = 0.339	972.4	8.37
343.15 K, x1 = 0.445	976.42	17.42
343.15 K, x1 = 0.578	979.44	41.06
343.15 K, x1 = 0.755	982.04	84.08
343.15 K, x1 = 0.865	982.37	177.92
343.15 K, x1 = 1	983.63	316.66
348.15 K, x1 = 0.128	950.66	1.58
348.15 K, x1 = 0.255	965	4.13
348.15 K, x1 = 0.339	968.9	7.4
348.15 K, x1 = 0.445	973.05	15.01
348.15 K, x1 = 0.578	976.36	34.18
348.15 K, x1 = 0.755	979.11	68.04
348.15 K, x1 = 0.865	979.56	138.26
348.15 K, x1 = 1	980.88	237.14
353.15 K, x1 = 0.128	946.27	1.48
353.15 K, x1 = 0.255	961.31	3.76
353.15 K, x1 = 0.339	965.27	6.63
353.15 K, x1 = 0.445	969.48	13.03
353.15 K, x1 = 0.578	973.29	28.74
353.15 K, x1 = 0.755	976.18	55.2
353.15 K, x1 = 0.865	976.69	108.95
353.15 K, x1 = 1	978.13	181.41
